Test: Antagonist activity at CCR9 receptor (unknown origin) by serum chemotaxis assay

- IC50: 170 nM
Compound: CC(C)(C)c1ccc(S(=O)(=O)Nc2ccc(Cl)cc2-c2nccnc2NCCO)cc1

Reference: BindingDB's records for doi:10.1016/j.bmcl.2015.06.046 (Cubist Pharmaceuticals, 2015)
